Measurements reported in patent US11752155B2, “Treatment of autism spectrum disorders, obsessive-compulsive disorder and anxiety disorders” (Rugen Holdings (Cayman) Limited, priority 2016, dated 2023).
Where two headings read alike, the source gives them in different places.

Legend:
human NR1/NR2A = human NR1/NR2A (Homo sapiens (Human), UniProt Q05586+Q12879); experiment: NR2A antagonist activity: calcium influx (Fluo-4) assay in HEK293 cells; format: cell-based
Method: Activation of the NR2A or NR2B subtype of NMDA receptor with glutamate as an agonist and glycine co-agonist on these cells results in calcium influx, which can be monitored with fluorescent indicator Fluo-4.
For experiments, the cells were seeded onto poly-D-lysine-coated 96-well black plates with clear bottom (Corning) at a density of ˜50,000 cells/well. After overnight culture, the growth medium was removed from the wells and the cells were incubated at 37° C. for 60 minutes in Hanks buffer containing 4 μM fluo-4-AM (Invitrogen) and 0.1% bovine serum albumin (BSA). After dye-loading, the cells were washed three times with Hanks buffer and incubated for 10 minutes at room temperature with various concentrations of test compounds prepared in Hanks buffer with 0.1% BSA. The cell plates were placed onto an FDSS Cell fluorescence reader (Hamamatsu). After 20 seconds of reading background fluorescence, agonist glutamate at final 100 µM and co-agonist glycine at final 50 μM were added to the cells to activate the receptor, and the resulting fluorescence changes were recorded and quantified. Based on the changes in fluorescence intensity, the pharmacological effect of test compounds was analyzed and the IC50 values derived from a non-linear least squares fitting of the concentration-dependent response to a standard logistic equation using Prism (Graphpad Software, Inc.): Amplitude=Max Amplitude/(1+(IC50/[antagonist])^n).

CYP2D6 = CYP2D6 (Homo sapiens (Human), UniProt P10635); experiment: CYP P450 enzyme inhibition in pooled human liver microsomes (dextromethorphan probe); format: in vitro ADME; conditions: human, pooled human liver microsomes, pH 7.4, probe dextromethorphan, 5 μM; 10 μM; read-out: CYP2D6 Inhibiton at 10 μM
CYP2D6, sequence (P10635 whole entry): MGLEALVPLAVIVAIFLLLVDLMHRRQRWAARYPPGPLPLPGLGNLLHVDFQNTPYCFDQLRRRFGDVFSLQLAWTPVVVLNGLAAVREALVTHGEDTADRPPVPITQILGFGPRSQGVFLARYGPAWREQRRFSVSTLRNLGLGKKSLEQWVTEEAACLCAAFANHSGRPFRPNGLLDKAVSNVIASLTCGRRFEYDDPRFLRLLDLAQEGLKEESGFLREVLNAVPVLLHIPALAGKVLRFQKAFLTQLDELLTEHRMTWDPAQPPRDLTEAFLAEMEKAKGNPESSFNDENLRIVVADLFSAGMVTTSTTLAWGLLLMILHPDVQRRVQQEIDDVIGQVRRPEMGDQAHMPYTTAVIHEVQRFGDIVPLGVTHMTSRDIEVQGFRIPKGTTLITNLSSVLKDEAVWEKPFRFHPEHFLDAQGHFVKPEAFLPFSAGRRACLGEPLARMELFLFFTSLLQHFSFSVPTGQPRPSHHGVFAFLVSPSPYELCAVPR
Method: Test compound concentration-dependent response studies were performed in triplicate.

human NR1/NR2B = human NR1/NR2B (Homo sapiens (Human), UniProt Q05586+Q13224); experiment: NR2B antagonist activity: calcium influx (Fluo-4) assay in HEK293 cells; format: cell-based; conditions: read-out: NR2B IC50
human NR1/NR2B, sequence (Q13224 27-1484, other chains not shown): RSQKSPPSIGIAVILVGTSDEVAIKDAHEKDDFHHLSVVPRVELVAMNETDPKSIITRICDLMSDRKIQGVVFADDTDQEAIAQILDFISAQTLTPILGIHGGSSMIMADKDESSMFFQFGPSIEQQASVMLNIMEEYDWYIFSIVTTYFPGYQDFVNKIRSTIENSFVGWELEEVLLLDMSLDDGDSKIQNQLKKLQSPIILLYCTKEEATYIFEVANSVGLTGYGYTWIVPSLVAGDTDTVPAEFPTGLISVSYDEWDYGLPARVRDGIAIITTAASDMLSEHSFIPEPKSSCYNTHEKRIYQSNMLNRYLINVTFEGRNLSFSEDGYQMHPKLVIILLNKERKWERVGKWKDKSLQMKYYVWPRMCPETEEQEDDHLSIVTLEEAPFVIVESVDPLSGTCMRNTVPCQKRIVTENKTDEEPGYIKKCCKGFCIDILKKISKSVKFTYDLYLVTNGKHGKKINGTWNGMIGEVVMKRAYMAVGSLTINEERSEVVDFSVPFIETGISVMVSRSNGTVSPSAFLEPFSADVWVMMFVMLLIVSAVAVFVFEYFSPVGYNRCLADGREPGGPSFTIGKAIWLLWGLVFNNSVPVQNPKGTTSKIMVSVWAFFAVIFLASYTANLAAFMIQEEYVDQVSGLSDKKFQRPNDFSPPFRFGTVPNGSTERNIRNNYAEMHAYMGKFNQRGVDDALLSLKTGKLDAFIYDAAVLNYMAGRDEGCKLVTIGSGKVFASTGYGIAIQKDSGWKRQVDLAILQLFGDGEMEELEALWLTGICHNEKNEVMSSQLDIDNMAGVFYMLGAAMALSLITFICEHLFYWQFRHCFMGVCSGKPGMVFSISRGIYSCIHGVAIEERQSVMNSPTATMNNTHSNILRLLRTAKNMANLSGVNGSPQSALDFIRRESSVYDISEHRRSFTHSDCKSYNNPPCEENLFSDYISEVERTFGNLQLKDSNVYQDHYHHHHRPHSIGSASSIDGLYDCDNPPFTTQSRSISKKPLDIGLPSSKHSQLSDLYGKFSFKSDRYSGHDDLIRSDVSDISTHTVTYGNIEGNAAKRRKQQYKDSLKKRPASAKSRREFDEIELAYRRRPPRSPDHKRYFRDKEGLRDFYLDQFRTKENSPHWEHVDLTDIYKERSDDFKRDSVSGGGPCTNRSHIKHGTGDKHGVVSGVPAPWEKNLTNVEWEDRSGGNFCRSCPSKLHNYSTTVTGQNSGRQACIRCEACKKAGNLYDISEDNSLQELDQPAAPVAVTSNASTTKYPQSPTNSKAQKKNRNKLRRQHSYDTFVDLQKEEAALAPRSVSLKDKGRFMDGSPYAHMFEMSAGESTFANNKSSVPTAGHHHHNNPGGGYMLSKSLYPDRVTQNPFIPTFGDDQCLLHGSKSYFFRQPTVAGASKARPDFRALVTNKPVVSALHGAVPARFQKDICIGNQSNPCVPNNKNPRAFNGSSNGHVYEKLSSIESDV
Summary of the method: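 HEK293 cells expressing NR1/NR2A or NR1/NR2B, loaded with fluo-4-AM, preincubated 10 min at room temperature with compound in Hanks buffer/0.1% BSA.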

hERG channel = hERG channel (Homo sapiens (Human), UniProt Q12809); experiment: hERG channel inhibition, whole cell patch clamp in HEK293 cells; format: cell-based; conditions: human, HEK293 cells stably expressing hERG channel, pH 7.35; 10 μM
hERG channel, sequence (Q12809 whole entry): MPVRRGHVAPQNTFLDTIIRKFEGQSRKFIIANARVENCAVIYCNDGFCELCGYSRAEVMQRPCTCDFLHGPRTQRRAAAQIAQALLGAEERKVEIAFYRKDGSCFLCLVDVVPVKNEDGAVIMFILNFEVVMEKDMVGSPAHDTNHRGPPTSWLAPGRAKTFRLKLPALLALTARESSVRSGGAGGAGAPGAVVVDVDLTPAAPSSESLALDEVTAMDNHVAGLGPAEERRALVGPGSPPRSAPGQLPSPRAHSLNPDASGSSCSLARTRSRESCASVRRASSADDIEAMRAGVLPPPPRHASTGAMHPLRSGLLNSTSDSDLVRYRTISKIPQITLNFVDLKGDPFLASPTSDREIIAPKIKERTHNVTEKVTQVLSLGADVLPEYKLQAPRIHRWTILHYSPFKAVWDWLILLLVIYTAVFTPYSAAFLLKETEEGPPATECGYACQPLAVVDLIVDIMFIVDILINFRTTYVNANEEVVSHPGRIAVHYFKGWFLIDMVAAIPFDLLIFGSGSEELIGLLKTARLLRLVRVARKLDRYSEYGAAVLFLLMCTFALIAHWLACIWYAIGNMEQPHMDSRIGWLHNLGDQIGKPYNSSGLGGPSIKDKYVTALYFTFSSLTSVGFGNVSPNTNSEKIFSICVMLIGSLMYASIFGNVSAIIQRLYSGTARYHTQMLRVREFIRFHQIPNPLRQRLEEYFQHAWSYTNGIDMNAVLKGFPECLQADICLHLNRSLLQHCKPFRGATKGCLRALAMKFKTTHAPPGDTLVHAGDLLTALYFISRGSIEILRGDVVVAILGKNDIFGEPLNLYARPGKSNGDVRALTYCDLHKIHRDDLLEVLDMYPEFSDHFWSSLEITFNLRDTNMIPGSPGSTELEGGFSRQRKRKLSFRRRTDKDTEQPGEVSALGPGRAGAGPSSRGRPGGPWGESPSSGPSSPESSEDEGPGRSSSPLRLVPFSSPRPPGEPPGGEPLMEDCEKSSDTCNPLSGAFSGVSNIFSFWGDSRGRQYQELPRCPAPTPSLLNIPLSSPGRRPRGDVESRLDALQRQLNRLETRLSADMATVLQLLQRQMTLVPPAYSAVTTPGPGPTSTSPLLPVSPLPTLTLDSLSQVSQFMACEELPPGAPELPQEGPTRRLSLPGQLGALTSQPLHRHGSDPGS
Method: The assay was performed on hERG channel stably expressed in HEK293 cells. The cells were cultured at 37° C. in a humidified CO2 incubator in the growth medium consisting of DMEM, 10% fetal bovine serum and antibiotics. Prior to the assay, the cells were seeded onto a 12-mm PDL-coated glass coverslip and cultured in a 35-mm Petri dish. After 16 to 40 hours culture, the coverslip was transferred into the chamber of OctaFlow perfusion system (ALA Instrument) and under a constant flow of extracellular solution (140 mM NaCl, 4 mM KCl, 1 mM MgCl2, 2 mM CaCl2, 10 mM HEPES, 10 mM D-glucose, pH 7.35, osmolarity 290). Whole cell patch clamping was performed with a glass micropipette filled with intracellular solution (120 mM KCl, 1.75 mM MgCl2, 5.4 mM CaCl2, 10 mM HEPES, 10 mM EGTA, and 4 mM ATP-K2, pH 7.2, osmolarity 310). Giga-seal was maintained during the test. The voltage control and current measurement were carried out using Axon amplifier 700B, Digidata 1440A and CLAMPEX10 software (Molecular Devices). Whole-cell hERG currents were recorded following the Petroski protocol: the cell was held at −80 mV, and the voltage step jumped from −80 to 30 mV and stay for 2 seconds with a 20-millisecond prepulse at −40 mV. After depolarization, the voltage was decreased to −40 mV and stay for 2 seconds, and returned back to −80 mV. Test compound was applied by quartz capillary tubes tip (200 m inner diameter), and the flow rate was controlled at 2-3 mL/min with OctaFlow perfusion system. Different concentrations of the compound were applied to the cells for 5 minutes and the hERG current was measured three times before, during and after compound treatment. The data were analyzed using Clampfit 10 software (Molecular Devices) to generate IC50 values.

[1] = single subcutaneous administration, highest dose tested; cited from earlier work
[2] = 18 patients, 6-19 years of age; cited from earlier work
[3] = after 8 weeks of treatment; cited from earlier work
[4] = Table 1.1B, read-out: NR2A IC50

human NR1/NR2A, sequence (Q12879 23-1464, other chains not shown): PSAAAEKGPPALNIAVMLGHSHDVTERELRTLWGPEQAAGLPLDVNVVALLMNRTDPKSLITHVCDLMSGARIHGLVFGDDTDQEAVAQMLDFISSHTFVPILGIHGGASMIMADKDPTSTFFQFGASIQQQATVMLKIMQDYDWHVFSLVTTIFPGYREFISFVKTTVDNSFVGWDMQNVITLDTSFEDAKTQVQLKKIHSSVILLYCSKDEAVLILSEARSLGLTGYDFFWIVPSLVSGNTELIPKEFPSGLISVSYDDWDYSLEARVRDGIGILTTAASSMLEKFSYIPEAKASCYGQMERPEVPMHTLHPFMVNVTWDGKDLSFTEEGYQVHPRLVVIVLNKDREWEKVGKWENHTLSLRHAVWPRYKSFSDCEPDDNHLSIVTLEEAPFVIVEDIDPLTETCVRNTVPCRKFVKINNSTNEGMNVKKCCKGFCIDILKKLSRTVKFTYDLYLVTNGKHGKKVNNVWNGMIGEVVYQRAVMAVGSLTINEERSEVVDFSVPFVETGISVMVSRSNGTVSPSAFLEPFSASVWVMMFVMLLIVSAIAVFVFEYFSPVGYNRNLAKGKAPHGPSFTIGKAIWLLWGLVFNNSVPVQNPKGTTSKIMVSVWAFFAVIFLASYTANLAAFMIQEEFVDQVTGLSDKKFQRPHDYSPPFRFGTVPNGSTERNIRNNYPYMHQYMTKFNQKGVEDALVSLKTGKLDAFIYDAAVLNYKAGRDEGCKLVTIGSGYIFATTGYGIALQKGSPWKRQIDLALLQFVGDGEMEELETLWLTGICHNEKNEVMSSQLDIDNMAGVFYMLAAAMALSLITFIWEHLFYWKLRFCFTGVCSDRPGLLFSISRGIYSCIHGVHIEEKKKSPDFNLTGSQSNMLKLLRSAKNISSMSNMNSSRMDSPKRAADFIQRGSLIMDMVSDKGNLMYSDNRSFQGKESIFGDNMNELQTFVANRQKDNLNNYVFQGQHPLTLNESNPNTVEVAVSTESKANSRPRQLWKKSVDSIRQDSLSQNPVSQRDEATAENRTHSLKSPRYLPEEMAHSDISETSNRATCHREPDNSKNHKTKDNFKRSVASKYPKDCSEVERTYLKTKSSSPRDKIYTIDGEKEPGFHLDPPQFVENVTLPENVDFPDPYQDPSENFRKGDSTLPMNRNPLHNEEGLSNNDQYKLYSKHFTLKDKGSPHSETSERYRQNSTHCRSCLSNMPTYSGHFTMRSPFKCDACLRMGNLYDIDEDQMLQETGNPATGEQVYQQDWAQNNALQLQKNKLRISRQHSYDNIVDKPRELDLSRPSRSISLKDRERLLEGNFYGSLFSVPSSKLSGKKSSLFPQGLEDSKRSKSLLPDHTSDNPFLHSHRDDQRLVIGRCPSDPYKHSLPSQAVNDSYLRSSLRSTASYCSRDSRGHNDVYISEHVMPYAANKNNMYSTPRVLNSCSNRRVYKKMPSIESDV

Work on `FC(F)(CN1CCC(Nc2ncnc3[nH]ccc23)CC1)c1ccccn1` [C-1^A′] yielded an IC50 (human NR1/NR2A) of over 10000 nM.

`CCc1ccc(COC(=O)N2CC[C@H](CNc3nccn4cnnc34)C(F)(F)C2)cc1` [E1-1.5^B′] showed an inhibition at 10 min, 10 µM (CYP2D6) of 28%, an IC50 (human NR1/NR2A; [4]) of over 10000 nM and an IC50 (human NR1/NR2B; Table 1.1B) of 9.6 nM. The IC50 (human NR1/NR2B; Table 1.3B) was 9.6 nM, the IC50 (human NR1/NR2B; Table 1.4B) was 9.6 nM and the inhibition at 5 min, 10 µM (hERG channel) was 46%.

`Cc1ccc(COC(=O)N2CC[C@H](CNc3ncc4cn[nH]c4n3)C(F)(F)C2)cc1` [E1-8.2^B′] gave an inhibition at 10 min, 10 µM (CYP2D6) of 83%, an IC50 (human NR1/NR2A; [4]) of over 10000 nM and an inhibition at 5 min, 10 µM (hERG channel) of 57%.

`Cc1ccc(COC(=O)N2CC[C@H](CNc3nc4ccccn4n3)C(F)(F)C2)cc1` [E1-9.2^B′] showed an inhibition at 10 min, 10 µM (CYP2D6) of 14%, an IC50 (human NR1/NR2A; [4]) of over 10000 nM and an inhibition at 5 min, 10 µM (hERG channel) of 38%.

For `C[C@@H](CN1CCC(Cc2ccccc2)CC1)[C@@H](O)c1ccc(O)cc1` [Ro25-6981], the “efficacy in the Marble Burying Test” value [1] is listed as “modest efficacy”.

For `CC12CC3CC(C)(C1)CC(N)(C3)C2` [memantine], the “patients who developed adverse effects” value [2] is listed as “seven out of 18”, the remission [3] is listed as 89% and the response [3] is listed as 100%.
